Values joined by “and” are separate entries in the source; they are usually repeats but may differ in a detail not shown here. Equal values may be shown once.
Key:
Male Sprague-Dawley rats = experiment: Forced Swimming Test (FST); assay type: in vivo, rat; details: 5b 40 mg/kg i.p. 24, 5 and 1 hour prior to the test; vs vehicle
Excerpt: The forced swimming test (FST), Open field Test (OFT) and the in vivo electrophysiology recording were employed to evaluate the anti-depressant activity, the anti-anxiety activity and the sleep promoting properties of the compounds of the present invention [compounds of Formula (I)]. The following results were obtained using compound 5b. Male Sprague-Dawley rats (225-275 g, Charles-River Saint-Constant, Quebec, Canada) were used. The animals were housed at constant room temperature and humidity under a 12 h light/dark cycle. Food and water were available ad libitum. All procedures were approved by local institutional care and use committees and followed the guidelines released by the Canadian Institutes of Health Research.
The FST is typically a two-day procedure in which rats are immersed in a water containing cylinder (18 cm in diameter; 40 cm high; water 30 cm deep, 25-27° C.) from which they cannot escape. On the first day, the rats are forced to remain in the water bath for 15 minutes (pre-test). During this time, the rats usually struggle to escape, but eventually adopt a posture of immobility in which they emit only the minimal movements necessary to keep their heads above water. The actual test (5 min) occurs 24 h later. When re-immersed in the water, immobility is increased; antidepressant treatments reliably reduce immobility during the test. The FST is both sensitive and selective for clinically effective antidepressants, has been repeatedly validated and is currently the most popular model for detecting antidepressant activity due to its ease of use, reliability and extremely high predictive validity (Lucki, I. (1997) Behav. Pharmacol. 8(6-7): 523-32).
At the end of the pre-test, the rats are removed from the water bath, dried with towels and placed in a warm enclosure for 15 min. The rats are then returned to their respective home cages. […] Behavior is recorded continuously throughout the 5 min test by a video camera positioned directly above the water cylinder. […] The total time for each type of behavior represents the times that a specified behavior is detected. […]

[1] = system: Male rats (Sprague-Dawley); experiment: EEG and EMG sleep recordings (slow wave sleep, REM sleep, wakefulness); assay type: in vivo, rat; details: 5b 40 mg/kg s.c.; individual rats 1-11
Method: Male rats (Sprague-Dawley) weighing approximately 300-340 g were used for surgical implantation of electroencephalogram (EEG) and electromyogram (EMG) electrodes. Following the recovery from surgery, the animals were housed separately in cages and kept on a 12-hour light/dark cycle (12 h light-12 h dark, 7:30 AM lights on) at a controlled temperature (21° C.). The rats had free access to food and water ad libitum.
Rats were anaesthetized using equithesin (425 mg chloral hydrate, 1 ml 100% ethanol, 98 mg pentobarbitone, 213 mg magnesium sulphate and 3 ml propylene glycol, sterile water per 10 ml of solution; 1 ml per 300 g body weight i.p.) and placed in a stereotactic frame. The skull was exposed and carefully cleaned. Two stainless-steel epidural electrodes were implanted for the registration of the EEG under stereotactic control, through 1.5 mm burr holes at the coordinates corresponding to the right parietal-occipital cortex (AP=−2 mm L=3 mm; AP=−7 mm L=3 mm) and the left parietal-occipital cortex (AP=−4.5 mm L=3 mm) according to the atlas by Paxinos (The Rat Brain in Stereotaxic Coordinates, Academic Press, 1995). Three stainless steel wire electrodes, isolated except for the last few millimeters, were implanted into the neck muscles (two bilaterally and one in the middle) for the monitoring of the EMG. The EEG epidural electrodes and the EMG wires were fitted to a six-pin female connector. For fixation to the skull, the wires and connector were covered with dental acrylic (Coltene/Whaledent Inc. USA). The animals were allowed to recover from the surgery for at least 3-4 days.
Twenty-four hours (24 h) following the surgery, the rats were placed in the recording room from noon to 9:00 PM, for 3-4 days. The rats were connected to the 6-flat cable (3M), in a freely-moving manner, from 6:00 PM to 9:00 PM for habituation. No recordings were performed at this time, however, the tolerance to the cable and the sleep behavior were observed.
Following 3-4 days of habituation, the rats received the injection of a vehicle (DMSO/saline 7:3, 0.2 ml s.c.) at 6:00 PM and the recording was carried out until 9:00 PM. On the following day the rats received diazepam (2 mg/kg, s.c.) at 6:00 PM and the recording was performed until 9:00 PM. Four days following the injection of diazepam, the rat received 5b (40 mg/kg s.c.) and the recording also performed from 6 to 9 PM.
For each experiment, a rat was placed individually in the cage and monitoring of the signal was carried out via the attachment of a non-restraining 6-wire flat cable and a female connector, which was connected to an impedance transformer with a gain of 10, located above the cage. The EEG signal was amplified (resulting in a total gain of 10,000) and locally filtered. The EMG signal was amplified as the EEG, (EEG: low filter 1.0 Hz; high 1 KHz, EMG: low filter 30.0 Hz; high 3 KHz). The power spectra analysis was performed for identification of the sleep stages. The behavior of the animals was observed during the experiment (eye movements, ambulation, rearing etc.).
The three classical vigilance-sleep states described in the rat were discriminated on the basis of the cortical EEG and neck EMG, following the classification by Ruigt et al. (Electroencephalography and clinical Neurophysiology, 1989, 73: 52-63). Wakefulness was identified by a low-amplitude and desynchronized EEG with sustained EMG activity. Slow wave sleep (SWS, includes Quiet sleep, deep sleep and Pre-REM) was clearly distinguished by high-voltage delta waves (2-4 Hz) and spindles associated with a […] EMG activity. Pre-REM sleep was characterized by a clear theta rhythm in the EEG, frequently alternating with short lasting, high voltage spindles. REM sleep was characterized by a low-amplitude EEG with a pronounced theta rhythm (5.5-8.5 Hz), a complete loss of muscle tone, and a low voltage EMG. […]

## COc1cccc(N(CCNC(C)=O)c2ccccc2)c1 [5b, N-{2-[(3-Methoxyphenyl)-phenylamino]ethyl}acetamide]
Male Sprague-Dawley rats
  immobility: significantly decreased
  tendency to climb or burst: increased the tendency to climb or burst
  tendency to swim: increased the tendency to swim
[1]
  REM Sleep Duration: 8.66 min and 7.04 min and 13.89 min and 4.96 min and 8.51 min and 11.6 min and 5.61 min and 7.2 min and 11.18 min and 11.76 min and 9.48 min
  REM Sleep Latency: 76.1 min and 62.31 min and 60.92 min and 109.5 min and 86.49 min and 71.16 min and 80.13 min and 101.41 min and 80.26 min and 54.26 min and 43.83 min
  REM Sleep Mean of a Single Episode: 1.237 min and 1.76 min and 1.54 min and 1.65 min and 1.063 min and 1.933 min and 1.402 min and 2.4 min and 2.23 min and 1.68 min and 1.896 min
  REM Sleep Number (episodes): 7 episodes (2×) and 4 episodes (2×) and 9 episodes and 3 episodes (2×) and 8 episodes and 6 episodes and 5 episodes (2×)
  Slow Wave Sleep Duration: 110.29 min and 73.51 min and 87.14 min and 92.65 min and 89.42 min and 80.00 min and 88.47 min and 79.1 min and 85.8 min and 80.84 min and 104.2 min
  Slow Wave Sleep Latency: 15.73 min and 2.73 min and 1.05 min and 11.9 min and 10.85 min and 23.2 min and 25.9 min and 17.62 min and 5.05 min and 25.12 min and 17.24 min
  Slow Wave Sleep Mean of a Single Episode: 5.01 min and 2.53 min and 3 min and 3.3 min and 3.43 min and 4.21 min and 2.6 min and 2.26 min and 6.12 min and 7.34 min and 7.44 min
  Slow Wave Sleep Number (episodes): 22 episodes and 29 episodes (2×) and 28 episodes and 26 episodes and 19 episodes and 34 episodes and 35 episodes and 14 episodes (2×) and 11 episodes
  Wakefulness Duration: 82.38 min and 82.05 min and 88.37 min and 85.99 min and 93.61 min and 83.69 min and 87.41 min and 90.48 min and 61.05 min and 92.11 min and 78.94 min
  Wakefulness Mean of a Single Episode: 3.39 min and 3.54 min and 3.28 min and 2.94 min and 3.56 min and 4.9 min and 2.38 min and 2.75 min and 6.43 min and 14.56 min and 7.54 min
  Wakefulness Number (episodes): 18 episodes (2×) and 26 episodes and 24 episodes and 28 episodes and 23 episodes and 36 episodes and 34 episodes and 13 episodes and 6 episodes and 12 episodes

— patent US8791163B2 (McGill University, priority 2006, dated 2014)
